US9212209B2, “Screening methods for spinal muscular atrophy” (Indiana University Research and Technology Corporation, priority 2012, dated 2015)
≈ marks a conversion by molar mass, not a printed value. Where “and” joins values, the source holds several entries; their conditions need not be identical. Identical values can stand only once. Like-named read-outs stand apart in the source and are kept apart here.

What was measured:
SMN2-luciferase reporter = SMN2-luciferase reporter assay (clonal HEK-293 SMN2-luc cells); type: cell-based, human; details: for Max. fold increase: cell-based reporter response to known SMN2 modulating compounds; for Emax: read-out: Max % Activity
Procedure: The reporter cell lines were plated at 50,000 cells per well in 96-well plates and incubated overnight. Compounds were added to each well and incubated at 37° C. overnight. The final DMSO concentration was 0.1%. Luciferase activity was assayed using either STEADYGLO (PROMEGA E2510) or DUALGLO (PROMEGA E2920) luciferase using the WALLAC ENVISION multilabel reader. For detailed assay conditions see Table 2A. All data points were transformed from CPS to percent increase over basal expression in the treated control wells (DMSO or H2O as appropriate).
Plates were sealed with porous paper tape and incubated for 24 hours. […] For comparison, data points were transformed from CPS to percent activation over basal expression in the DMSO treated control wells.
For comparison, all data points are expressed as percent increase over basal luciferase expression in the control cells.

[1] = Liver microsome stability; details: for Stabilityin liver microsomes: Table 8; for Stability: Table 9; for half-life: mouse, liver microsomes
SMA mice = test: SMA mice, intraperitoneal dosing: lifespan, weight, time to right; type: in vivo, mouse; details: for lifespan / weight of the treated animals: words; for Time to right: individual pup, raw data
Procedure: The animal studies included new derivatives of LDN-76070 and LDN-75654. Mice were injected intraperitoneally once daily from post-natal day 1-10. […] Compounds LDN-212014, LDN-212016, LDN-212351, and LDN-212391 were injected into a cohort of animals (3-4 each). […] In the Kaplan-Meier curve that DMSO control decreased survival by 50%—the compounds were in […] (FIG. 26A).
LDN-212014 and LDN-76070 were further tested in A7 SMA model mice. Mice were dosed using compounds dissolved in 100% DMSO injected at 20 mg/kg with each dose administered once daily by intraperitoneal injection. As shown in the black curves in the Kaplan-Meier plot, control animals lived 4-5 days longer than the DMSO vehicle treated animals, indicating toxicity. […] In fact, the compounds display a statistically significant increase in survival compared with the untreated animals. These compounds extend the lifespan of SMA mice despite the DMSO toxicity.
In ‘time to right’ experiments, animals are placed on their backs and the duration for animals to right themselves is recorded. Animals that are unable to right in less than 30 seconds are scored as a failure. DMSO treated animals were unable to right themselves, while a small percentage of untreated animals display the ability to right themselves for up to postnatal day (PND) 11. A larger percentage of treated animals can right themselves past PND 17, and in the case of one animal as late as PND 21.

[2] = Solubility in PBS / aqueous solution; type: physicochemical
[3] = tested on: SMN-luciferase transcripts; test: qRT-PCR of SMN-luciferase transcripts in SMN2-luc cells; type: cell-based, human; details: 24 hours, relative to DMSO, normalized to GAPDH, aclarubicin at 300 nM, words
Procedure: Compounds were tested at three concentrations that display maximal activity in the luciferase assay. Cells were treated as described above for the luciferase assay. Cells were harvested by trypsinization, neutralized with trypsin inhibitor, and washed. RNA was isolated from the cells using TRIZOL Reagent (Invitrogen 15596-026). cDNA was generated using the IMPROM-II Reverse Transcription System (Promega A3801).
The forward primer pair recognizes the exon 5-6 junction, which includes a restriction site that was engineered into the reporter and will exclude amplification of endogenous SMN mRNA. The reverse primers recognize either exon 7 or luciferase for detection of full-length or total SMN-luciferase transcripts respectively. For a reference control, cDNA from the housekeeping gene glyceraldehyde-3-phosphate dehydrogenase (GAPDH) was amplified. The primers used include SMN exon5-forward ([…]) (SEQ ID NO: 3), luciferase-reverse ([…]) (SEQ ID NO: 4), exon7-reverse ([…]) (SEQ ID NO: 5), GAPDH-reverse (G3A) ([…]) (SEQ ID NO: 6) and GAPDH-forward (G3S) ([…]) (SEQ ID NO: 7). qPCR was performed as described in the protocol for iQ SYBRGREEN SUPERMIX (Biorad 170-8882) using an EPPENDORF Mastercycler ep realplex^4 Thermo Cycler. Reactions were incubated for a 10 minute, 94° C. hot start followed by 45 cycles of the following: 94° C. for 45 second, 60° C. for 15 seconds, 72° C. for 45 seconds. Melting curves for each reaction were obtained. Each sample was assayed in triplicate and every plate contained a 5-point cDNA dilution course to calculate amplification efficiency for each primer pair. The Pfaffl method was used to determine the change in transcript levels relative to the DMSO and normalized to GAPDH (Pfaffl, M. W., “A new mathematical model for relative quantification in real-time RT-PCR,” Nucleic Acids Res 2001, 29(9), 3e45).
Based on the new reporter design, it was predicted that this screen could detect increased SMN-luciferase protein levels caused by compounds that stimulate SMN2 transcription, exon 7 inclusion, or by increasing the half-life of the SMN mRNA or protein. Quantitative reverse transcriptase PCR (qRT-PCR) was used to analyze SMN-luciferase mRNAs. All assays used RNA from control and compound-treated SMN2-luc cells and primers pairs were chosen to amplify only the SMN-luciferase derived transcripts (FIG. 4A). A pair of primers were used that specifically detects both full-length (exon 7 included) and Δ7 (exon 7 excluded) SMN-luciferase transcripts (primers 1 and 3). To measure changes in exon 7 splicing efficiency, a primer pair was used that detects only the full-length (exon 7 included) SMN-luciferase transcript (primers 1 and 2).
For each sample, the percent increase in the amount of total SMN-luciferase transcripts (gray bar) and exon 7 included full-length SMN-luciferase transcripts (white bar) was plotted (FIG. 4). Compounds that increase transcription should show increased total SMN-luciferase transcripts (gray bar) with a proportional increase for exon 7 included transcripts (white bar), assuming that proper splicing of exon 7 is not rate limiting. Compounds that stimulate exon 7 inclusion should increase the amount of exon 7 included full-length transcript (white bar) detected with little to no change in the expression of total SMN-luciferase transcripts (gray bar). In these experiments, cells were treated with compound, harvested, and each cell pellet was divided for isolation of RNA and to assay luciferase activity. Each qRT-PCR sample was normalized to the housekeeping gene glyceraldehyde-3-phosphate dehydrogenase (GAPDH). The Pfaffl method was used to calculate the change in the amount of total SMN mRNA and determine whether compound treatments increased SMN transcripts.

[4] = Homo sapiens, HEK293, reporter assay, Table 6, read-out: Ec50
[5] = IP once daily post-natal day 1-10, compounds in 20% DMSO, 3-4 animals each
[6] = IP once daily post-natal day 1-10, compounds in 20% DMSO
[7] = aqueous solution, Table 8, grades, read-out: Solubility in aqueous solution
[8] = Homo sapiens, HEK293, cell-based reporter, known SMN2 modulating compounds, read-out: EC50
[9] = Homo sapiens, HEK293, reporter assay, Table 6

COc1cc2c(c(OC)c1OC)C(c1cc(Cl)ccc1F)NC(=O)N2 (centres unmarked) [LDN-212391] gave an EC50 (SMN2-luciferase reporter; Homo sapiens, HEK293, Table 7, read-out: EC50) of 5 µM, an EC50 (SMN2-luciferase reporter; [4]) of 4.4 µM and a Maximum % activation (SMN2-luciferase reporter; Table 7) of 238.3 ± 28.5%. The Active (SMN2-luciferase reporter; reporter assay, Table 6) was “Yes”, the “Max % Activity” value (SMN2-luciferase reporter; reporter assay, Table 6) was 267% and the Stabilityin liver microsomes [1] was 13 to 20 min. For the same molecule, the Stability [1] was 13 to 20 min, the half-life ([1]; T1/2 in liver microsomes, Table 7) was 13 min and the lifespan (SMA mice; [5]) was “extension of lifespan”. The “weight of the treated animals” value (SMA mice; [6]) was “increased”, the Time to right (SMA mice; PND 6) was “Fail (Fail = >30 sec)” and the Time to right (SMA mice; PND 7) was “Fail (Fail = >30 sec)”. For the same molecule, the Time to right (SMA mice; PND 8) was “Fail (Fail = >30 sec)”, the Time to right (SMA mice; PND 9) was “Fail (Fail = >30 sec) (2×) and 18 seconds” and the Time to right (SMA mice; PND 10) was “Fail (Fail = >30 sec) (2×) and 20 seconds”. For the same molecule, the Time to right (SMA mice; PND 11) was “Fail (Fail = >30 sec)”, the Time to right (SMA mice; PND 12) was “dead and Fail (Fail = >30 sec) (2×)” and the Time to right (SMA mice; PND 13) was “dead and Fail (Fail = >30 sec) (2×)”. The Time to right (SMA mice; PND 14) was “dead and Fail (Fail = >30 sec) (2×)”, the Time to right (SMA mice; PND 15) was “dead and Fail (Fail = >30 sec) (2×)” and the Time to right (SMA mice; PND 16) was “dead (2×) and Fail (Fail = >30 sec)”. For the same molecule, the Time to right (SMA mice; PND 17) was “dead (2×) and Fail (Fail = >30 sec)”, the Time to right (SMA mice; PND 18) was “dead (2×) and Fail (Fail = >30 sec)” and the Time to right (SMA mice; PND 19) was “dead (2×) and Fail (Fail = >30 sec)”. For the same molecule, the Time to right (SMA mice; PND 20) was “dead”, the solubility ([2]; PBS, aqueous buffer, read-out: Maximal solubility in PBS) was 1000 µM (≈ 367 µg/mL) and the solubility [2, 7] was 500 to 2000 µM (≈ 183 to 734 µg/mL).
In the case of CC(/C=C/C(=O)NO)=C\[C@@H](C)C(=O)c1ccc(N(C)C)cc1 [TSA], the “exon 7 included full-length SMN-luciferase transcripts” value [3] is reported as “increased” and the “total SMN-luciferase transcripts” value [3] is reported as “increased”.
In the case of CCCC(CCC)C(=O)O [Valproic Acid, valproic acid], the “exon 7 included full-length SMN-luciferase transcripts” value [3] is reported as “increases”, the “total SMN-luciferase transcripts” value [3] is reported as “increases” and the “exon 7 included full-length SMN-luciferase transcripts” value ([3]; listed as VPA) is reported as “increased”. For the same molecule, the “total SMN-luciferase transcripts” value ([3]; listed as VPA) was “increased”, the EC50 (SMN2-luciferase reporter; [8]) was 10000 µM and the Max. fold increase (SMN2-luciferase reporter) was 2.5 fold.
O=C(Nc1ncc(C2(O)CCC2)s1)c1ccc(F)c(Cl)c1 [LDN-212014] gave an EC50 (SMN2-luciferase reporter; [4]) of 0.5 µM, an Emax (SMN2-luciferase reporter; [9]) of 180% and a Maximum % activation (SMN2-luciferase reporter; Table 7) of 156.6 ± 30.7%. For the same molecule, the EC50 (SMN2-luciferase reporter; Table 7, read-out: EC50) was 0.3 µM, the Active (SMN2-luciferase reporter; reporter assay, Table 6) was “Yes” and the “T1/2 in liver microsomes” value ([1]; Table 7) was 39 min. It also gave a Stabilityin liver microsomes [1] of 39 min, a Stability [1] of 39 min and a half-life ([1]; t1/2 in mouse liver microsomes, mouse liver microsomes) of 39 min. For the same molecule, the lifespan (SMA mice; [5]) was “extension of lifespan”, the “weight of the treated animals” value (SMA mice; [6]) was “increased” and the Time to right (SMA mice; PND 6) was “Fail (Fail = >30 sec)”. For the same molecule, the Time to right (SMA mice; PND 6, listed as 212014) was “dead”, the Time to right (SMA mice; PND 7) was “Fail (Fail = >30 sec)” and the Time to right (SMA mice; PND 7, listed as 212014) was “dead”. The Time to right (SMA mice; PND 8) was “Fail (Fail = >30 sec)”, the Time to right (SMA mice; PND 8, listed as 212014) was “dead” and the Time to right (SMA mice; PND 9) was “Fail (Fail = >30 sec) (2×) and dead and 26 seconds”. The Time to right (SMA mice; PND 10) was “Fail (Fail = >30 sec)”, the Time to right (SMA mice; PND 10, listed as 212014) was “dead” and the Time to right (SMA mice; PND 11) was 5 seconds and dead and Fail (Fail = >30 sec) (2×). For the same molecule, the Time to right (SMA mice; PND 12) was 16 s, the Time to right (SMA mice; PND 12, listed as 212014) was “dead” and the Time to right (SMA mice; PND 13) was “Fail (Fail = >30 sec)”. For the same molecule, the Time to right (SMA mice; PND 13, listed as 212014) was “dead”, the Time to right (SMA mice; PND 14) was 5 s and the Time to right (SMA mice; PND 14, listed as 212014) was “dead”. For the same molecule, the Time to right (SMA mice; PND 15) was 14 s, the Time to right (SMA mice; PND 15, listed as 212014) was “dead” and the Time to right (SMA mice; PND 16) was “Fail (Fail = >30 sec)”. The Time to right (SMA mice; PND 16, listed as 212014) was “dead”, the Time to right (SMA mice; PND 17) was “Fail (Fail = >30 sec)” and the Time to right (SMA mice; PND 17, listed as 212014) was “dead”. For the same molecule, the Time to right (SMA mice; PND 18) was “dead”, the Time to right (SMA mice; PND 19) was “dead” and the Time to right (SMA mice; PND 20) was “dead”. For the same molecule, the lifespan (SMA mice; SMA model mice, 20 mg/kg once daily IP in 100% DMSO, vs DMSO vehicle, p<0.0001) was “significantly increased lifespan” and the “Maximal solubility in PBS” value ([2]; PBS) was over 2000 µM.
With O=C(Nc1ncc(C2(O)CCC2)s1)c1nc2ccccc2[nH]1 [LDN-214098] the EC50 (SMN2-luciferase reporter; [4]) was 0.15 µM, the Emax (SMN2-luciferase reporter; [9]) was 200% and the Active (SMN2-luciferase reporter; reporter assay, Table 6) was “Yes”. The Stabilityin liver microsomes [1] was 59 min and the solubility [2, 7] was over 2000 µM.
In the case of CC(C(=O)O)c1ccc(N2Cc3ccccc3C2=O)cc1 (centres unmarked) [Indoprofen, indoprofen, reference compound], the “exon 7 included full-length SMN-luciferase transcripts” value [3] is reported as “No consistent change”, the “total SMN-luciferase transcripts” value [3] is reported as “No consistent change” and the EC50 (SMN2-luciferase reporter; [8]) is reported as 0.46 µM. For the same molecule, the Max. fold increase (SMN2-luciferase reporter) was 3 fold.
With CC[C@@]1(O)C[C@H](O[C@H]2C[C@H](N(C)C)[C@H](O[C@H]3C[C@H](O)[C@H](O[C@H]4CCC(=O)[C@H](C)O4)[C@H](C)O3)[C@H](C)O2)c2c(cc3c(c2O)C(=O)c2c(O)cccc2C3=O)[C@H]1C(=O)OC [Aclarubicin, aclarubicin, reference compound] the “exon 7 included full-length SMN-luciferase transcripts” value [3] was “lesser increase”, the “total SMN-luciferase transcripts” value [3] was “potent increase” and the EC50 (SMN2-luciferase reporter; Homo sapiens, HEK293) was 0.298 µM. For the same molecule, the Max. fold increase (SMN2-luciferase reporter) was 10 fold.
